In US12065436B2, “Cardiac sarcomere inhibitors” (Cytokinetics, Inc., priority 2018, dated 2024):

Target: bovine cardiac myofibrils (full-length cardiac myosin ATPase in the native sarcomere) (Bos taurus (Bovine), UniProt Q9BE39)
Assay: Skinned bovine cardiac myofibril ATPase assay (PK/LDH-coupled)
Format: biochemical
Details: Ca2+ activating to 75% of maximal rate; for CDMF75 IC15: concentration giving 15% inhibition; for IC50: read-out: CDMF75 IC50
Summary of the method: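 Inhibition of steady-state ATPase read at 340 nm through a PK/LDH-coupled NADH system (0.5 mM NADH, 1.5 mM PEP). Detergent-skinned bovine cardiac myofibrils, 1 mg/mL, were tested at pH 6.8 in PIPES/MgCl2 with 50 μM ATP and calcium adjusted to give pCa50 or pCa75 activation.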

bovine cardiac myofibrils (full-length cardiac myosin ATPase in the native sarcomere), sequence (Q9BE39 whole entry): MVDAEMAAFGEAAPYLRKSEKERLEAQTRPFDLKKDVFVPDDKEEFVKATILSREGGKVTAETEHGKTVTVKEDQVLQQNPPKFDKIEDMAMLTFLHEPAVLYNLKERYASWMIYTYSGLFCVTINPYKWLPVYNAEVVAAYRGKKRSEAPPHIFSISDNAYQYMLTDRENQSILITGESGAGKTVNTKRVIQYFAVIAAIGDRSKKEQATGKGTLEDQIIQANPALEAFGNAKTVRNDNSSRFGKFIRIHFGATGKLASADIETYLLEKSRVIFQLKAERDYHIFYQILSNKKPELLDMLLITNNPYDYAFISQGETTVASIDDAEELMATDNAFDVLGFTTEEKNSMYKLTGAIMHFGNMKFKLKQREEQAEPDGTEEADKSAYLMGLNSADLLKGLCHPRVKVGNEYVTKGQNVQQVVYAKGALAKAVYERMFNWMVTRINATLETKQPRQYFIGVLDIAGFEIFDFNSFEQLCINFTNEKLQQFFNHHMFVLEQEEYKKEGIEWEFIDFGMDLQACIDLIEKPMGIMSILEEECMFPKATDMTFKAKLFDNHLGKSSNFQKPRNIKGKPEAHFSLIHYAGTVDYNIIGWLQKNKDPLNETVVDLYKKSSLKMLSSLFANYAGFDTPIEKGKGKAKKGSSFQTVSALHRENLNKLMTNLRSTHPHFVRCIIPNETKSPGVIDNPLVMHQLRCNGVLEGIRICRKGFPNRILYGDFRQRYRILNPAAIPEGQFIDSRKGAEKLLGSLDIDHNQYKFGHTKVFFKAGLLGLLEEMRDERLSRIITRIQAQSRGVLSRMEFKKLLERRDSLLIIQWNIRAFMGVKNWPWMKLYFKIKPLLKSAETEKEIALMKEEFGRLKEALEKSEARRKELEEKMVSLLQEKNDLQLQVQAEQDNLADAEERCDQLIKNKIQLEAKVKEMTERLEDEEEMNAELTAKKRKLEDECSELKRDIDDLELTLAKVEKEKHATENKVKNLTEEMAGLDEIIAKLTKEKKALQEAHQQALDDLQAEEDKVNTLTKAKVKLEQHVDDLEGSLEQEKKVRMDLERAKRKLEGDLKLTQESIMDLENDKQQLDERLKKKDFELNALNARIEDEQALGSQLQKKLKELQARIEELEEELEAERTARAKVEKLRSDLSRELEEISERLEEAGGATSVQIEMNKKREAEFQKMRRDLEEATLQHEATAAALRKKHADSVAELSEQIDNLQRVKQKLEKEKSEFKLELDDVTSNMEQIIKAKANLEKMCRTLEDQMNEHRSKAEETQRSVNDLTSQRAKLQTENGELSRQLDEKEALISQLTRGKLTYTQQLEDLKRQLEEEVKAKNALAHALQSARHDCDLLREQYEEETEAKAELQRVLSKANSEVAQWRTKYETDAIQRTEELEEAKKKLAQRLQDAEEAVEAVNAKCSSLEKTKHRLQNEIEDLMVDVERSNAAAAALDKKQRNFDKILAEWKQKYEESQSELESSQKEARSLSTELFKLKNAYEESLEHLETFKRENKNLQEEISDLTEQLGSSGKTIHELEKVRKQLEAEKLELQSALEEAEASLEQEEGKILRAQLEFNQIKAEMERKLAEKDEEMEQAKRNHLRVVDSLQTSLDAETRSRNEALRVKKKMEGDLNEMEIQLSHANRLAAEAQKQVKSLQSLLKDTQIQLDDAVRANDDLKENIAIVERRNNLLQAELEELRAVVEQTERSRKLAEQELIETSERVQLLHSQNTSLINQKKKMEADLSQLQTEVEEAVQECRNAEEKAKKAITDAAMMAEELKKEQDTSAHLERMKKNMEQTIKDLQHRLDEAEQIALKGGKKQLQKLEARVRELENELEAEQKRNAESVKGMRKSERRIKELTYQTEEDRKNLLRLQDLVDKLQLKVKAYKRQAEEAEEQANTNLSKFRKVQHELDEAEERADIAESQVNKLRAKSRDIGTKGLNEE
bovine cardiac myofibrils (full-length cardiac myosin ATPase in the native sarcomere), sequence (P85100 whole entry partner): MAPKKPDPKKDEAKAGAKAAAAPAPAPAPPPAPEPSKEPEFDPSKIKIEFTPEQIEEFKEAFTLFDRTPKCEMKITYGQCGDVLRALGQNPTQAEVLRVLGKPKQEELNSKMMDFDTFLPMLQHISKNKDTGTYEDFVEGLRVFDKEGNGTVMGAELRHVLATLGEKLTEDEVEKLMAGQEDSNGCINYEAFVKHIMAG
bovine cardiac myofibrils (full-length cardiac myosin ATPase in the native sarcomere), sequence (Q3SZE5 whole entry partner): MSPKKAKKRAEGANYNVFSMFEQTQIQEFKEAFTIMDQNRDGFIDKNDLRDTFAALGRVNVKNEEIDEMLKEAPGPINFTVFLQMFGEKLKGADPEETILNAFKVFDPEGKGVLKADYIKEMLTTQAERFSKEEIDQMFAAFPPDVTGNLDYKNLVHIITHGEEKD

SMILES | CDMF75 IC15 [nM] | IC50 [nM]
Cc1cc(-c2ccc3c(c2)CC[C@H]3NC(=O)c2ccnn2C)ncn1 [Compound 381, (R)-1-methyl-N-(5-(6-methylpyrimidin-4-yl)-2,3-dihydro-1H-inden-1-yl)-1H-pyrazole-5-carboxamide] | 39200 | > 39200
Cc1cncc(-c2ccc3c(c2)CC[C@H]3NC(=O)c2ccnn2C)n1 [Compound 382, (R)-1-methyl-N-(5-(6-methylpyrazin-2-yl)-2,3-dihydro-1H-inden-1-yl)-1H-pyrazole-5-carboxamide] | 2700 | 10100
Cc1cnnc(-c2ccc3c(c2)CC[C@H]3NC(=O)c2ccnn2C)c1 [Compound 383, (R)-1-methyl-N-(5-(5-methylpyridazin-3-yl)-2,3-dihydro-1H-inden-1-yl)-1H-pyrazole-5-carboxamide] | 3400 | 11600
Cc1cc(-c2ccc3c(c2)CC[C@H]3NC(=O)c2ccnn2C)cnn1 [Compound 384, (R)-1-methyl-N-(5-(6-methylpyridazin-4-yl)-2,3-dihydro-1H-inden-1-yl)-1H-pyrazole-5-carboxamide] | 39200 | > 39200
CCc1nc(-c2ccc3c(c2)CC[C@H]3NC(=O)c2cnc(C)o2)no1 [Compound 385, (R)-N-(5-(5-ethyl-1,2,4-oxadiazol-3-yl)-2,3-dihydro-1H-inden-1-yl)-2-methyloxazole-5-carboxamide] | 500 | 1700
CCc1nc(-c2ccc3c(c2)CC[C@H]3NC(=O)c2ocnc2C)no1 [Compound 386, (R)-N-(5-(5-ethyl-1,2,4-oxadiazol-3-yl)-2,3-dihydro-1H-inden-1-yl)-4-methyloxazole-5-carboxamide] | 300 | 800
Cc1cc(C(=O)N[C@@H]2CCc3cc(-c4noc(C5CC5)n4)ccc32)ccn1 [Compound 389, (R)-N-(5-(5-cyclopropyl-1,2,4-oxadiazol-3-yl)-2,3-dihydro-1H-inden-1-yl)-2-methylisonicotinamide] | 600 | 1900
Cc1ncoc1C(=O)N[C@@H]1CCc2cc(-c3noc(C4CC4)n3)ccc21 [Compound 390, (R)-N-(5-(5-cyclopropyl-1,2,4-oxadiazol-3-yl)-2,3-dihydro-1H-inden-1-yl)-4-methyloxazole-5-carboxamide] | 400 | 1000
Cc1ncc(C(=O)N[C@@H]2CCc3cc(-c4noc(C(C)C)n4)ccc32)o1 [Compound 391, (R)-N-(5-(5-isopropyl-1,2,4-oxadiazol-3-yl)-2,3-dihydro-1H-inden-1-yl)-2-methyloxazole-5-carboxamide] | 1300 | 4600
Cc1cc(C(=O)N[C@@H]2CCc3cc(-c4noc(C(C)C)n4)ccc32)ccn1 [Compound 392, (R)-N-(5-(5-isopropyl-1,2,4-oxadiazol-3-yl)-2,3-dihydro-1H-inden-1-yl)-2-methylisonicotinamide] | 900 | 2700
Cc1ncoc1C(=O)N[C@@H]1CCc2cc(-c3noc(C(C)C)n3)ccc21 [Compound 393, (R)-N-(5-(5-isopropyl-1,2,4-oxadiazol-3-yl)-2,3-dihydro-1H-inden-1-yl)-4-methyloxazole-5-carboxamide] | 400 | 1200
CC(C)c1nc(-c2ccc3c(c2)CC[C@H]3NC(=O)c2cnn(C)c2)no1 [Compound 394, (R)-N-(5-(5-isopropyl-1,2,4-oxadiazol-3-yl)-2,3-dihydro-1H-inden-1-yl)-1-methyl-1H-pyrazole-4-carboxamide] | 1200 | 4100
CC(=O)N[C@@H]1CCc2cc(-c3noc(C(C)C)n3)ccc21 [Compound 395, (R)-N-(5-(5-isopropyl-1,2,4-oxadiazol-3-yl)-2,3-dihydro-1H-inden-1-yl)acetamide] | 3100 | 13500
Cc1n[nH]cc1C(=O)N[C@@H]1CCc2cc(-c3noc(C(C)C)n3)ccc21 [Compound 396, (R)-N-(5-(5-isopropyl-1,2,4-oxadiazol-3-yl)-2,3-dihydro-1H-inden-1-yl)-3-methyl-1H-pyrazole-4-carboxamide] | 400 | 1600
COCc1nc(-c2ccc3c(c2)CC[C@H]3NC(=O)c2c[nH]nc2C)no1 [Compound 397, (R)-N-(5-(5-(methoxymethyl)-1,2,4-oxadiazol-3-yl)-2,3-dihydro-1H-inden-1-yl)-3-methyl-1H-pyrazole-4-carboxamide] | 900 | 3200
CCc1nc(-c2ccc3c(c2)CC[C@H]3NC(=O)c2c[nH]nc2C)no1 [Compound 398, (R)-N-(5-(5-ethyl-1,2,4-oxadiazol-3-yl)-2,3-dihydro-1H-inden-1-yl)-3-methyl-1H-pyrazole-4-carboxamide] | 400 | 1200
Cc1n[nH]cc1C(=O)N[C@@H]1CCc2cc(-c3noc(C4CCC4)n3)ccc21 [Compound 399, (R)-N-(5-(5-cyclobutyl-1,2,4-oxadiazol-3-yl)-2,3-dihydro-1H-inden-1-yl)-3-methyl-1H-pyrazole-4-carboxamide] | 300 | 1000
Cc1nc(-c2ccc3c(c2)CC[C@H]3NC(=O)c2c[nH]nc2C)no1 [Compound 400, (R)-3-methyl-N-(5-(5-methyl-1,2,4-oxadiazol-3-yl)-2,3-dihydro-1H-inden-1-yl)-1H-pyrazole-4-carboxamide] | 800 | 2800
[2H]C([2H])([2H])c1nc(-c2ccc3c(c2)CC[C@H]3NC(=O)c2c[nH]nc2C)no1 [Compound 401, (R)-3-methyl-N-(5-(5-(methyl-d3)-1,2,4-oxadiazol-3-yl)-2,3-dihydro-1H-inden-1-yl)-1H-pyrazole-4-carboxamide] | 900 | 3000
Cc1cc(-c2ccc3c(c2)CC[C@H]3NC(=O)c2cnn(C)c2)no1 [Compound 402, (R)-1-methyl-N-(5-(5-methylisoxazol-3-yl)-2,3-dihydro-1H-inden-1-yl)-1H-pyrazole-4-carboxamide] | 1000 | 3800
Cc1cc(-c2ccc3c(c2)CC[C@H]3NC(=O)c2ccnn2C)no1 [Compound 403, (R)-1-methyl-N-(5-(5-methylisoxazol-3-yl)-2,3-dihydro-1H-inden-1-yl)-1H-pyrazole-5-carboxamide] | 400 | 1200
CCc1cc(-c2ccc3c(c2)CC[C@H]3NC(=O)c2ccnc(C)c2)no1 [Compound 404, (R)-N-(5-(5-ethylisoxazol-3-yl)-2,3-dihydro-1H-inden-1-yl)-2-methylisonicotinamide] | 400 | 1200
CCc1nc(-c2ccc3c(c2)CC[C@H]3NC(C)=O)no1 [Compound 405, (R)-N-(5-(5-ethyl-1,2,4-oxadiazol-3-yl)-2,3-dihydro-1H-inden-1-yl)acetamide] | 600 | 2300
CC(=O)N[C@@H]1CCc2cc(-c3noc(C4CCC4)n3)ccc21 [Compound 406, (R)-N-(5-(5-cyclobutyl-1,2,4-oxadiazol-3-yl)-2,3-dihydro-1H-inden-1-yl)acetamide] | 1900 | 7700
CC(=O)N[C@@H]1CCc2cc(-c3noc(C)n3)ccc21 [Compound 407, (R)-N-(5-(5-methyl-1,2,4-oxadiazol-3-yl)-2,3-dihydro-1H-inden-1-yl)acetamide] | 3200 | 13800
